Test system: B. anthracis strain 34F2ΔluxS
Assay type: cell-based

SMILES: CCCCC1=C(Br)/C(=C/Br)OC1=O [furanone 1, (5Z)-4-bromo-5-(bromomethylene)-3-butyl-2(5H)-furanone]
- Growth of the 34F2ΔluxS strain (OD600): dramatically inhibited
- Growth inhibitory effect for 34F2ΔluxS relative to wild-type 34F2 (20 μg/ml, 30 hrs): prolonged
